Experimental findings from BindingDB's records for doi:10.1016/0960-894X(95)00058-2 (1995) are described below.

The target in test [1] is Squalene monooxygenase (Sus scrofa). In words: The compound was tested for its inhibitory activity against pig Squalene epoxidase at pH 8.8.
The target is the same in test [2]. The test is described as follows: The compound was tested for its inhibitory activity against pig Squalene epoxidase at pH 7.4.

Usually IC50 stands for the point on the concentration scale where inhibition reaches its midpoint. Higher therefore signals lower potency. `CC(C)=CCC/C(=C/CC/C(C)=C/CC/C=C(\C)CC/C=C(\C)CCC=C(C)C)CN` [6,11,15,19-tetramethyl-2-(4-methyl-3-pentenyl)-(2Z,6E,10E,14E)-2,6,10,14,18-icosapentaen-1-amine]: the half-inhibitory concentration (IC50) in test [1] is 32 µM; in test [2] it was 109 µM.
